Values of other authors, collected in patent publication US20230149425A1, “PROCESS AND THERAPEUTIC COMPOSITION FOR TREATING AND PREVENTING SEVERE INJECTION SITE REACTIONS” (Brii Biosciences, Inc., priority 2021, published 2023).

Tests used:
[1] = lactating women
[2] = oral

CC(=O)[C@H]1CC[C@H]2[C@@H]3CC[C@H]4C[C@H](O)CC[C@]4(C)[C@H]3CC[C@]12C [brexanolone, 5α-pregnane-3α-ol-20-one]
concentrations in milk and plasma [1]: low
risk to breastfed infants [1]: low risk

C[C@@]1(O)CC[C@H]2[C@H](CC[C@@H]3[C@@H]2CC[C@]2(C)[C@@H](C(=O)Cn4cc(C#N)cn4)CC[C@@H]32)C1 [SAGE-217]
reduction of depressive symptoms in clinical trials ([2]; administration for 14 days): mixed results
adverse events versus placebo ([2]; clinical trials): more adverse events than the placebo

C[C@]12CCC(=O)C=C1CC[C@@H]1[C@@H]2C(=O)C[C@@]2(C)[C@H]1CC[C@]2(O)C(=O)CO [cortisone]
safety and pain relief of injection in lactating women: safe and efficient for pain relief
